Source: US20250270190A1, “KIT INHIBITORS” (BLUEPRINT MEDICINES CORPORATION, priority 2022, published 2025)
Counter-ions that a name gives are not always drawn.

Target: T1, c-kit autophosphorylation (Phospho c-Kit Tyr721) in HMC 1.1 (exon 11/13) cells, V654A (Homo sapiens, UniProt P10721, V560G/V654A)
T1 construct: endogenous in cells; host or cells: HMC 1.1 (exon 11/13) cells
Assay: pKIT Meso Scale Discovery (MSD) assay, inhibition of autophosphorylation of KIT, HMC1.1_V654A
Assay type: cell-based
Settings: Table 1, cell line not named for Table 1, b1056 names pKIT HMC1.1_V654A, read-out: Code (IC50 for inhibition of autophosphorylation of KIT, pKIT MSD assay)
Outline: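 HMC1.1 cells were serum-starved for 4 h in serum-free, iron-free, phenol red-free IMDM, then treated with compound in dose-response for 90 min at 37 °C. Staurosporine and DMSO served as controls. Lysates were analysed by MSD electrochemiluminescence immunoassay for phospho-c-Kit Tyr721, and % inhibition of autophosphorylation was derived.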

T1 sequence (P10721 26-976 V560G/V654A): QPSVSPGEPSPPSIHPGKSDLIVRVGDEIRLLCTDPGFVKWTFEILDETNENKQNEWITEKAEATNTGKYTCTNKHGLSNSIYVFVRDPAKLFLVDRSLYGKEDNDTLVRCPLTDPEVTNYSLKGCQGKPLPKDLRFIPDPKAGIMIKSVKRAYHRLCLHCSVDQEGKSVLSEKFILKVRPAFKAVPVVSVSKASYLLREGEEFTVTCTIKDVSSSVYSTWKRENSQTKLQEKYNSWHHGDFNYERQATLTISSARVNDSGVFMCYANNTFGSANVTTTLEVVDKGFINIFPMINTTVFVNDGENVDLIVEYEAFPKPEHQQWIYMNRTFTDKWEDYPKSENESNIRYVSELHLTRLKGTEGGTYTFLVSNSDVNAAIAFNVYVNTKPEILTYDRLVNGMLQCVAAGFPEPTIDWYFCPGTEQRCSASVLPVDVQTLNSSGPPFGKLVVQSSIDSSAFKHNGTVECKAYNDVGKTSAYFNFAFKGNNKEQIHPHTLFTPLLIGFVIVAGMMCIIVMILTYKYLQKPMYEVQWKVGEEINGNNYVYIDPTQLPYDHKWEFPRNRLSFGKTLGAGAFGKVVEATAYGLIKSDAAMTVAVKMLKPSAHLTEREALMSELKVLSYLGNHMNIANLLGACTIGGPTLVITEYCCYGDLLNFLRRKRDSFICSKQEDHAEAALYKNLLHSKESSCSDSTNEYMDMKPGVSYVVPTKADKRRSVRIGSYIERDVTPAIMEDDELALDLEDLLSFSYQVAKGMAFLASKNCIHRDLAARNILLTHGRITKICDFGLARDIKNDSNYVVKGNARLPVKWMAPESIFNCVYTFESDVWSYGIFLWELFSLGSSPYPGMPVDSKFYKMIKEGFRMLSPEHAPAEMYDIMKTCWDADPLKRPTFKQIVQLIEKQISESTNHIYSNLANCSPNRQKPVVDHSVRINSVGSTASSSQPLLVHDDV

| Compound | IC50 [nM] |
| --- | --- |
| COc1cc(Nc2cc(N)nc(C(F)F)n2)ncc1-c1cnn(CCN(C)CC(F)(F)F)c1 [Compound 199, 2-(difluoromethyl)-N4-(4-methoxy-5-(1-(2-(methyl(2,2,2-trifluoroethyl)amino)ethyl)-1H-pyrazol-4-yl)pyridin-2-yl)pyrimidine-4,6-diamine] | < 10 |
| CNC(=O)c1cnc(Nc2cc(N)nc(C(F)F)n2)cc1NC1CC1 [Compound 23, 6-((6-amino-2-(difluoromethyl)pyrimidin-4-yl)amino)-4-(cyclopropylamino)-N-methylnicotinamide] | < 10 |
| CNc1cc(Nc2cc(N)nc(C(F)F)n2)ncc1C(=O)NCC#N [Compound 22, 6-((6-amino-2-(difluoromethyl)pyrimidin-4-yl)amino)-N-(cyanomethyl)-4-(methylamino)nicotinamide] | > 40 |
| CCCNC(=O)c1cnc(Nc2cc(N)nc(C(F)F)n2)cc1NC1CC1 [Compound 62, 6-((6-amino-2-(difluoromethyl)pyrimidin-4-yl)amino)-4-(cyclopropylamino)-N-propylnicotinamide] | 10 to 40 |
| 6-((6-amino-4-(difluoromethyl)pyridin-2-yl)amino)-4-(((1S,2R)-2-fluorocyclopropyl)amino)-N-methylnicotinamide [Compound 45] | 10 to 40 |
| COCCn1cc(-c2cnc(Nc3cc(N)nc(C(F)F)n3)cc2OC2CC2)cn1 [Compound 146, N4-(4-cyclopropoxy-5-(1-(2-methoxyethyl)-1H-pyrazol-4-yl)pyridin-2-yl)-2-(difluoromethyl)pyrimidine-4,6-diamine] | < 10 |
| CNc1cc(Nc2cc(N)nc(C(F)F)n2)ncc1C(=O)NC12CC(CO)(C1)C2 [Compound 121, 6-((6-amino-2-(difluoromethyl)pyrimidin-4-yl)amino)-N-(3-(hydroxymethyl)bicyclo[1.1.1]pentan-1-yl)-4-(methylamino)nicotinamide] | 10 to 40 |
| COc1cc(Nc2cc(N)nc(C(F)F)n2)ncc1-c1cnn(C[C@@H]2CCN2)c1 (single isomer, unassigned) [Compound 102, (S)-N4-(5-(1-(azetidin-2-ylmethyl)-1H-pyrazol-4-yl)-4-methoxypyridin-2-yl)-2-(difluoromethyl)pyrimidine-4,6-diamine or (R)-N4-(5-(1-(azetidin-2-ylmethyl)-1H-pyrazol-4-yl)-4-methoxypyridin-2-yl)-2-(difluoromethyl)pyrimidine-4,6-diamine] | < 10 |
| 6-((6-amino-2-(difluoromethyl)pyrimidin-4-yl)amino)-N-methyl-4-((4-methyltetrahydro-2H-pyran-4-yl)amino)nicotinamide [Compound 125] | < 10 |
| CN1CCC(n2cc(-c3cnc(Nc4cc(N)nc(C(F)F)n4)cc3OC(F)F)cn2)C1 (stereo not drawn) [Compound 192, N4-(4-(difluoromethoxy)-5-(1-(1-methylpyrrolidin-3-yl)-1H-pyrazol-4-yl)pyridin-2-yl)-2-(difluoromethyl)pyrimidine-4,6-diamine] | < 10 |
| CCNc1cc(Nc2cc(N)nc([C@@H](C)F)n2)ncc1C(=O)NC [Compound 10, (R)-6-((6-amino-2-(1-fluoroethyl)pyrimidin-4-yl)amino)-4-(ethylamino)-N-methylnicotinamide] | > 40 |
| Nc1cc(Nc2cc(OC(F)F)c(-c3cnn(C4CC4)c3)cn2)nc(C(F)F)n1 [Compound 127, N4-(5-(1-cyclopropyl-1H-pyrazol-4-yl)-4-(difluoromethoxy)pyridin-2-yl)-2-(difluoromethyl)pyrimidine-4,6-diamine] | < 10 |
| CCOc1cc(Nc2cc(N)nc(C(F)F)n2)ncc1-c1cnn(C2CN(C)C2)c1 [Compound 141, 2-(difluoromethyl)-N4-(4-ethoxy-5-(1-(1-methylazetidin-3-yl)-1H-pyrazol-4-yl)pyridin-2-yl)pyrimidine-4,6-diamine] | < 10 |
| [2H]C([2H])([2H])NC(=O)c1cnc(Nc2cc(N)nc(C(F)F)n2)cc1NC1CC1 [Compound 31, 6-((6-amino-2-(difluoromethyl)pyrimidin-4-yl)amino)-4-(cyclopropylamino)-N-(methyl-d3)nicotinamide] | < 10 |
| Nc1cc(Nc2cc(NC3CC3)c(C(=O)NCc3ccccn3)cn2)nc(C(F)F)n1 [Compound 153, 6-((6-amino-2-(difluoromethyl)pyrimidin-4-yl)amino)-4-(cyclopropylamino)-N-(pyridin-2-ylmethyl)nicotinamide] | < 10 |
| Nc1cc(Nc2cc(OC3CC3)c(-c3cnn([C@H]4CCNC4)c3)cn2)nc(C(F)F)n1 (single isomer, unassigned) [Compound 159, (S)-N4-(4-cyclopropoxy-5-(1-(pyrrolidin-3-yl)-1H-pyrazol-4-yl)pyridin-2-yl)-2-(difluoromethyl)pyrimidine-4,6-diamine or (R)-N4-(4-cyclopropoxy-5-(1-(pyrrolidin-3-yl)-1H-pyrazol-4-yl)pyridin-2-yl)-2-(difluoromethyl)pyrimidine-4,6-diamine] | < 10 |
| CNC(=O)c1cnc(Nc2cc(N)nc([C@H](C)F)n2)cc1NC [Compound 3, (S)-6-((6-amino-2-(1-fluoroethyl)pyrimidin-4-yl)amino)-N-methyl-4-(methylamino)nicotinamide] | 10 to 40 |

| Compound | IC50 [nM] |
| --- | --- |
| COc1cc(Nc2cc(N)nc(C(F)F)n2)ncc1-c1cnn(CCNCC(F)(F)F)c1 [Compound 197, 2-(difluoromethyl)-N4-(4-methoxy-5-(1-(2-((2,2,2-trifluoroethyl)amino)ethyl)-1H-pyrazol-4-yl)pyridin-2-yl)pyrimidine-4,6-diamine] | < 10 |
| CCNc1cc(Nc2cc(N)nc(C(F)F)n2)ncc1C(=O)NCc1cocn1 [Compound 113, 6-((6-amino-2-(difluoromethyl)pyrimidin-4-yl)amino)-4-(ethylamino)-N-(oxazol-4-ylmethyl)nicotinamide] | < 10 |
| CNC(=O)c1cnc(Nc2cc(N)nc(CF)n2)cc1N[C@H]1CCOC1 [Compound 36, (S)-6-((6-amino-2-(fluoromethyl)pyrimidin-4-yl)amino)-N-methyl-4-((tetrahydrofuran-3-yl)amino)nicotinamide] | > 40 |
| CC(C)Nc1cc(Nc2cc(N)nc(C(F)F)n2)ncc1C(=O)NCc1ccccn1 [Compound 158, 6-((6-amino-2-(difluoromethyl)pyrimidin-4-yl)amino)-4-(isopropylamino)-N-(pyridin-2-ylmethyl)nicotinamide] | < 10 |
| Nc1cc(Nc2cc(OC3COC3)c(-c3cnn(C4CNC4)c3)cn2)nc(C(F)F)n1 [Compound 168, N4-(5-(1-(azetidin-3-yl)-1H-pyrazol-4-yl)-4-(oxetan-3-yloxy)pyridin-2-yl)-2-(difluoromethyl)pyrimidine-4,6-diamine formate] | > 40 |
| CNC(=O)c1cnc(Nc2cc(N)nc([C@H](C)F)n2)cc1NC(C)C [Compound 21, (S)-6-((6-amino-2-(1-fluoroethyl)pyrimidin-4-yl)amino)-4-(isopropylamino)-N-methylnicotinamide] | < 10 |
| C[C@H](CF)Nc1cc(Nc2cc(N)nc(C(F)F)n2)ncc1C(=O)NCc1ccccn1 [Compound 187, (R)-6-((6-amino-2-(difluoromethyl)pyrimidin-4-yl)amino)-4-((1-fluoropropan-2-yl)amino)-N-(pyridin-2-ylmethyl)nicotinamide] | 10 to 40 |
| Nc1cc(Nc2cc(NC3CC3)c(C(=O)NCc3ncco3)cn2)nc(C(F)F)n1 [Compound 135, 6-((6-amino-2-(difluoromethyl)pyrimidin-4-yl)amino)-4-(cyclopropylamino)-N-(oxazol-2-ylmethyl)nicotinamide] | < 10 |
| Nc1cc(Nc2cc(OC3CC3)c(-c3cnn(CCO)c3)cn2)nc(C(F)F)n1 [Compound 108, 2-(4-(6-((6-amino-2-(difluoromethyl)pyrimidin-4-yl)amino)-4-cyclopropoxypyridin-3-yl)-1H-pyrazol-1-yl)ethan-1-ol] | < 10 |
| CNCCn1cc(-c2cnc(Nc3cc(N)nc(C(F)F)n3)cc2OC2COC2)cn1 [Compound 175, 2-(difluoromethyl)-N4-(5-(1-(2-(methylamino)ethyl)-1H-pyrazol-4-yl)-4-(oxetan-3-yloxy)pyridin-2-yl)pyrimidine-4,6-diamine] | > 40 |
| CCNC(=O)c1cnc(Nc2cc(N)nc(C(F)F)n2)cc1NCC [Compound 30, 6-((6-amino-2-(difluoromethyl)pyrimidin-4-yl)amino)-N-ethyl-4-(ethylamino)nicotinamide] | 10 to 40 |
| CN(C)CCn1cc(-c2cnc(Nc3cc(N)nc(C(F)F)n3)cc2OC(F)(F)F)cn1 [Compound 194, 2-(difluoromethyl)-N4-(5-(1-(2-(dimethylamino)ethyl)-1H-pyrazol-4-yl)-4-(trifluoromethoxy)pyridin-2-yl)pyrimidine-4,6-diamine] | < 10 |
| CNC(C)Cn1cc(-c2cnc(Nc3cc(N)nc(C(F)F)n3)cc2OC2CC2)cn1 (stereo not drawn) [Compound 170, N4-(4-cyclopropoxy-5-(1-(2-(methylamino)propyl)-1H-pyrazol-4-yl)pyridin-2-yl)-2-(difluoromethyl)pyrimidine-4,6-diamine] | < 10 |
| CNC(=O)c1cnc(Nc2cc(N)nc(C(F)F)n2)cc1NC(CF)CF [Compound 75, 6-((6-amino-2-(difluoromethyl)pyrimidin-4-yl)amino)-4-((1,3-difluoropropan-2-yl)amino)-N-methylnicotinamide] | < 10 |
| Nc1cc(Nc2cc(OC3CC3)c(-c3cnn(CC4CCO4)c3)cn2)nc(C(F)F)n1 (stereo not drawn) [Compound 166, N4-(4-cyclopropoxy-5-(1-(oxetan-2-ylmethyl)-1H-pyrazol-4-yl)pyridin-2-yl)-2-(difluoromethyl)pyrimidine-4,6-diamine] | < 10 |
| CCNc1cc(Nc2cc(N)nc(C(F)F)n2)ncc1C(=O)NCc1ncco1 [Compound 114, 6-((6-amino-2-(difluoromethyl)pyrimidin-4-yl)amino)-4-(ethylamino)-N-(oxazol-2-ylmethyl)nicotinamide] | 10 to 40 |
